Where “and” joins values, the source holds several entries; their conditions need not be identical. Identical values can stand only once. Numbered stars: 1 amine (or outer) side, 2 acyl side, 3 side chain; on linkers, the order of the positions; unused ones are H or OH. Square brackets hold non-standard residues; d marks the D form. Peptide text beside a SMILES is read from it. ξ: configuration not given here. X1 = CSCC[C@H](NC(=N)[C@H](Cc1c[nH]cn1)N[*:1])C(=O)[*:2]; pS = N[C@@H](COP(=O)(O)O)C(=O)O; Ile(3ξ) = CCC(C)[C@H](N)C(=O)O
Legend:
[1] = system: MRL/lpr mice; experiment: MRL/lpr mouse model of Gougerot-Sjögren syndrome (salivary glands); format: in vivo
Method: In this study MRL/lpr female 11-12 week old mice were used with 10 mice per group for statistical analysis. Each mouse received a single injection by retro-orbital, 100 μg of peptide P140 of 100 μl in […] NaCl. After 5 days, the mouse blood was collected in heparinized tube and salivary glands (GSS) were removed and placed in Eppendorf tubes containing PBS pH 7.4.
The number of foci site (FS) is determined for each mouse. A focus is defined as an aggregate of 50 or more cells.
The level of inflammation SG is determined semiquantitatively by a scoring system (0-3 scale): Grade 0: no inflammatory cells; Grade 1: few perivascular inflammatory and periductal Infiltrates (<100 cells); Grade 2: moderate number of perivascular inflammatory and periductal Infiltrates (100-500 cells); Grade 3: extensive inflammation with inflammatory foci broad (>500 cells).
Cells of total salivary glands stained with fluorescently were labeled antibodies for 40 min at 4° C., Were Collected data by FACSCalibur.
The weight of salivary glands Was Measured after-excision. DNase I (1 mg/ml) and collagenase D (50 μg/ml) were used to digest the salivary glands. Total cell counts were evaluated after the digestion.
The MRL/lpr mice (10 mice per arm) were injected with peptide P140 (100 μl/mouse iv). Five days after injection the mice were sacrificed and SGs collected as indicated above. The tissue was cut by the cryostat sections of 5 μm. The sections were labeled with hematoxylin/eosin staining is the method most frequently used in tissue histology. The level of inflammation and the number of FS were determined (FIGS. 19 and 20). Representative pictures are from sample control group 4 and group Treated sample (Bar 500 μm).

[2] = system: Balb/c mice; experiment: 15-day ovalbumin-induced airway hypereosinophilia model, BAL cells; format: in vivo, mouse; design: Eosinophils / Neutrophils / T cells / B cells: unit not given here; conditions: for B cells / Eosinophils / Macrophages / Neutrophils / T cells / Total cells: BAL
Method: The P140 phosphopeptide was solubilized in sterile water (Braun) and 10× concentrate sterile saline was added to adjust osmolarity to 300 mosm. Osmolarity was controlled with a micro osmometer (Loser, type 15) and validated (302 mosm).
The P140 phosphopeptide was used in vivo at the dose of 4 mg/kg by intranasal (i.n.) and intravenous (i.v.) routes. Control animals received equivalent volumes (1 ml/kg for i.n. and 2 ml/kg for i.v.) of saline (Table 6).
Nine-week-old male Balb/c mice were sensitized by intraperitoneal (i.p.) injections of a mixture containing 50 μg OVA (Sigma-Aldrich) and 2 mg alum (Sigma-Aldrich) in 0.1 ml saline. Mice were challenged by i.n. administration of 25 μl of OVA on day 5, then 25 μl of OVA and/or saline on day 12, 13 and 14. Mice were treated by i.v. injection (2 ml/kg) or i.n. administration (1 ml/kg) of P140 or solvent on day 9 (See FIG. 12).
[…] Performing Bronchoalveolar Lavage in the Mouse. Curr Protoc Mouse Biol 2:167-175). Mice were anaesthetized IP (Ketamine 150 mg/kg-Xylasine 10 mg/kg). Blood was collected from the heart, centrifuged at 10,000 g for 2 min and serum stored at −20° C. After semi-excision of the trachea, a plastic cannula was inserted, and airspace washed with 0.5 ml of 0.9% NaCl injected with a 1 ml syringe. This procedure was performed 10 times. The initial concentrated supernatant of the 2 first lavages (volume=2×0.5 ml administered, ˜0.5 ml recovered) was collected for cytokine measurements. The remaining BAL fluid was centrifuged (300 g for 5 min, 4° C.), and cell pellets pooled. The cell pellet was suspended in 500 μl of 0.9% NaCl and used for total cell counts evaluated on a Muse® Cell Analyser. Differential cell counts were assessed by flow cytometry (LSRII® cytometer, BD Bioscience). BAL cells were added with FCblock (0.5 μl, 553142, BD Bioscience) in a black microplate, incubated for 20 min at room temperature. Then, marker antibodies were added: CD11c-FITC (557400, BD bioscience), Gr-1-Pe-eFluor610 (61-5931-82, eBioscience), CD11b-APC-Cy7 (557657, BD bioscience), CD45-AlexaFluor700 (103128, BioLegend), CD3-BV605 (564009, BD bioscience), CD19-PE-Cy7 (552854, BD bioscience). Antibodies were incubated with BAL cells for 30 min at room temperature before DAPI (5 μl, BD bioscience) addition, and flow cytometry was performed immediately.
Data are presented as means±SEM. Differences between groups were tested for statistical significance using one-way ANOVA followed by Tukey's post-test. For statistical analysis, control groups 1, 2 and 3 were pooled.

[3] = system: MRL/lpr mice; experiment: Survival analysis in MRL/lpr mice; format: in vivo, mouse; conditions: female MRL/lpr mice, peptide intravenously from five weeks of age; NaCl control 25 weeks
Method: It has been determined that this mouse strain carries a mutation in the fas gene. Also, the MRL/lpr is a useful model to study behavioural and cognitive deficits found in autoimmune diseases and the efficacy of immunosuppressive agents [Monneaux et al., 2003, Eur. J. Immunol. 33, 287-296].
Five-week-old female MRL/lpr mice received P140 or peptide P140(MO) intravenously as described (Monneaux et al., 2003, Eur. J. Immunol. 33, 287-296). All experimental protocols were carried out with the approval of the local Institutional Animal Care and Use Committee (CREMEAS). As control, mice were injected with NaCl.
Twenty mice were used for each peptide or NaCl.
Statistical tests were performed using GraphPad Prism version 5.0. The two-way ANOVA test was used to analyze statistical significance of proteinuria differences between control and peptide-treated groups of mice. Survival of control and P140 analogue-treated female MRL/lpr mice was analyzed by the Kaplan-Meier method, and the significance of differences was determined by the log-rank test. For the other variables, statistical significance was assessed using the Student's t-test. p values less than 0.05 were considered significant.

[4] = 5 days after one single iv injection, flow cytometry
[5] = OVA challenge, P140-IN 4 mg/kg day 9, individual mice NL415-2_6 to _20
[6] = OVA challenge, P140-IN, 4 mg/kg day 9, individual mice NL415-2_12 to _22
[7] = saline challenge, P140-IN 4 mg/kg day 9, individual mice NL415-2_2, _8
[8] = saline challenge, P140-IN, 4 mg/kg day 9, individual mice NL415-2_4, _15
[9] = i.v. 4 mg/kg, OVA-challenged mice

## CCC(C)[C@H](NC(=O)[C@H](Cc1ccccc1)NC(=O)[C@H](C)NC(=O)[C@H](Cc1ccc(O)cc1)NC(=O)CNC(=O)[C@H](CCCNC(=N)N)NC(=O)[C@@H]1CCCN1C(=O)[C@H](CCCCN)NC(=O)CNC(=O)[C@H](COP(=O)(O)O)NC(=O)[C@H](CCCNC(=N)N)NC(=O)[C@H](CCCCN)NC(=O)[C@H](CO)NC(=O)[C@H](Cc1ccc(O)cc1)NC(=O)[C@@H](NC(=O)[C@H](CCSC)NC(=N)[C@H](Cc1c[nH]cn1)NC(=O)[C@@H](NC(=O)[C@@H](N)CCCNC(=N)N)C(C)CC)C(C)C)C(=O)N[C@@H](CCC(=O)O)C(=O)N[C@@H](Cc1ccc(O)cc1)C(=O)O (stereo partly drawn) [Compound P140] (H-R[Ile(3ξ)][X1]VYSKR[pS]GKPRGYAF[Ile(3ξ)]EY-OH)
[1]; 5 days after one single administration, hematoxylin/eosin
  Lymphocytic infiltration in the SGs: significantly reduced
[1]; 5 days after one single iv injection
  Weight of salivary glands (SGs): no statistically significant effect
[1]; [4]
  CD4+ T cells in SGs: decreased
  Total number of B cells in SGs: no statistically significant effect
  Total number of cells present in the SGs: no apparent effect
[2]; [5]
  B cells: 25 606 and 32 251 and 26 562 and 23 383 and 33 156 and 13 236
  Eosinophils: 490 306 and 497 948 and 737 671 and 839 841 and 792 249 and 615 171
  Macrophages: 271 110 and 322 340 and 247 391 and 538 954 and 436 210 and 286 509
  Neutrophils: 57 542 and 60 787 and 62 354 and 95 173 and 47 346 and 65 366
  T cells: 44 036 and 61 800 and 73 159 and 118 360 and 101 951 and 61 293
  Total cells: 862 995 and 942 875 and 1 120 576 and 1 592 328 and 1 377 755 and 1 028 339
[2]; [6]
  B cells: 10 219 and 15 209 and 14 027 and 17 417 and 11 003 and 10 922
  Eosinophils: 425 928 and 272 763 and 473 105 and 470 027 and 327 186 and 429 469
  Macrophages: 439 265 and 442 055 and 244 523 and 293 070 and 342 134 and 379 565
  Neutrophils: 42 783 and 21 442 and 59 616 and 76 867 and 40 275 and 31 756
  T cells: 41 744 and 43 881 and 32 677 and 55 502 and 28 857 and 45 030
  Total cells: 949 720 and 780 142 and 809 921 and 895 467 and 738 452 and 885 821
[2]; [7]
  B cells: 112 and 242
  Eosinophils: 168 and 103
  Macrophages: 388 102 and 434 029
  Neutrophils: 56 and 61
  T cells: 4 135 and 4 180
  Total cells: 392 461 and 438 573
[2]; [8]
  B cells: 70 and 266
  Eosinophils: 110 and 166
  Macrophages: 335 658 and 335 200
  Neutrophils: 259 and 133
  T cells: 5311 and 4 790
  Total cells: 341 738 and 340 389
[2]; i.n. or i.v., control mice challenged with saline
  Number of cells recovered in BAL fluid as compared to vehicle (saline): little effect per se
[2]; i.n. route, OVA-challenged mice
  Inflammatory cell recruitment in BAL: little effect
[2]; [9]
  B cells recruitment in BAL, change vs OVA group: −42%
  Eosinophil recruitment in BAL, change vs OVA group: −50%
  T cells recruitment in BAL, change vs OVA group: −66%
[2]; i.v. 4 mg/kg, OVA-challenged mice, not significant
  Neutrophils recruitment in BAL, change vs OVA group: −38%
[3]
  Median survival of mice: 29 weeks
